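Briefly, cells in 96-well plates were exposed to five compound concentrations for 48 h, and endpoints were estimated by linear interpolation. GI50 is the concentration that inhibits growth by half.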 Active and inactive are the calls of the source. Rule as the data show it: active = GI50 up to about 1.1 µM and inactive = higher.
Experiments:
Assay in all cases: NCI-60 cell line screen, 48 h
SR = test system: SR
Malme-3M = test system: Malme-3M
HL-60 = test system: HL-60
SK-MEL-28 = test system: SK-MEL-28
A549 = test system: A549
OVCAR-8 = test system: OVCAR-8
RPMI-8226 = test system: RPMI-8226
COLO 205 = test system: COLO 205
CAKI-1 = test system: CAKI-1
SF-539 = test system: SF-539
MOLT-4 = test system: MOLT-4
NCI-H226 = test system: NCI-H226
HT-29 = test system: HT-29
HOP-62 = test system: HOP-62
UO-31 = test system: UO-31
NCI-H522 = test system: NCI-H522
RXF 393 = test system: RXF 393
SN12C = test system: SN12C
SNB-19 = test system: SNB-19

Measured: GI50

O=C1CCCC/C(=C/c2ccccc2)N1
inactive: SR > 100 µM | Malme-3M > 100 µM | HL-60 > 100 µM | SK-MEL-28 > 100 µM | A549 > 100 µM | OVCAR-8 > 100 µM | RPMI-8226 > 100 µM | COLO 205 > 100 µM | CAKI-1 > 100 µM | SF-539 > 100 µM | MOLT-4 > 100 µM | NCI-H226 > 100 µM | HT-29 > 100 µM | HOP-62 > 100 µM | UO-31 > 100 µM | NCI-H522 > 100 µM | RXF 393 > 100 µM | SN12C > 100 µM

O=C(C(=O)N1CC2C=CC1CC2)c1c[nH]c2ccccc12 (configuration not stated)
inactive: SNB-19 > 100 µM | SR > 100 µM | Malme-3M > 100 µM | HL-60 > 100 µM | A549 > 100 µM | OVCAR-8 > 100 µM | RPMI-8226 > 100 µM | COLO 205 > 100 µM | CAKI-1 > 100 µM | SF-539 > 100 µM | MOLT-4 > 100 µM | NCI-H226 > 100 µM | HT-29 > 100 µM | HOP-62 > 100 µM | UO-31 > 100 µM | NCI-H522 > 100 µM | RXF 393 > 100 µM | SN12C > 100 µM

O=C1O/C(=C(\Br)c2cccc3ccccc23)c2ccccc21
inactive: SR 19.7 µM | Malme-3M > 46.7 µM | HL-60 19.5 µM | SK-MEL-28 > 35.1 µM | A549 20 µM | OVCAR-8 > 43.7 µM | RPMI-8226 22.2 µM | COLO 205 28.3 µM | SF-539 48.1 µM | MOLT-4 21.5 µM | NCI-H226 > 41.3 µM | HT-29 22.5 µM | HOP-62 > 100 µM | UO-31 > 41.3 µM | NCI-H522 16 µM | RXF 393 > 49 µM | SN12C 21.3 µM

O=C1c2ccccc2-c2nc(-c3cccnc3)cc3c2c1nc1ccccc13
inactive: SNB-19 > 100 µM | SR 11.9 µM | Malme-3M 92.9 µM | HL-60 21.2 µM | SK-MEL-28 > 100 µM | A549 > 100 µM | OVCAR-8 > 100 µM | RPMI-8226 45.8 µM | COLO 205 > 100 µM | CAKI-1 > 100 µM | SF-539 > 100 µM | MOLT-4 23.6 µM | NCI-H226 > 100 µM | HT-29 > 100 µM | HOP-62 > 100 µM | UO-31 > 100 µM | NCI-H522 > 100 µM | SN12C > 100 µM

COc1ccc(-c2cc(=O)c3ccccc3[nH]2)c(OC)c1
inactive: SNB-19 > 100 µM | SR > 100 µM | Malme-3M > 100 µM | HL-60 73.6 µM | SK-MEL-28 > 100 µM | A549 > 100 µM | OVCAR-8 > 100 µM | RPMI-8226 > 100 µM | COLO 205 > 100 µM | SF-539 > 100 µM | MOLT-4 > 100 µM | HT-29 > 100 µM | HOP-62 > 100 µM | UO-31 > 100 µM | NCI-H522 > 100 µM | RXF 393 > 100 µM | SN12C > 100 µM

CC(C)(C)C1CC[C@H]2c3c([nH]c4ccc(Br)cc34)[C@H]3C(=O)N(c4ccccc4)C(=O)[C@H]3[C@H]2C1 (some centres not stated)
inactive: SNB-19 23.6 µM | SR 3.22 µM | Malme-3M 31.6 µM | HL-60 7.71 µM | SK-MEL-28 41.1 µM | A549 27.4 µM | OVCAR-8 3.49 µM | RPMI-8226 98.2 µM | COLO 205 7.74 µM | CAKI-1 53.7 µM | MOLT-4 15.6 µM | NCI-H226 35.2 µM | HT-29 43 µM | HOP-62 54 µM | UO-31 74.8 µM | NCI-H522 19.4 µM | RXF 393 32.7 µM | SN12C 13.5 µM

CCC(C)Cn1c(C)nc2c1C(=O)c1ccccc1C2=O (configuration not stated)
inactive: SNB-19 53.6 µM | SR 2.81 µM | Malme-3M 27.7 µM | HL-60 5.06 µM | SK-MEL-28 37.2 µM | A549 31.5 µM | OVCAR-8 32.9 µM | COLO 205 19.8 µM | SF-539 17.7 µM | MOLT-4 2.91 µM | NCI-H226 > 100 µM | HT-29 28.2 µM | HOP-62 23.8 µM | UO-31 24.5 µM | NCI-H522 30 µM | RXF 393 33.9 µM | SN12C 36.1 µM

CCCCCCCCCCCCOP(N)(=O)OCCCCCCCCCCCC
inactive: SNB-19 > 100 µM | SR > 100 µM | Malme-3M > 100 µM | HL-60 > 100 µM | SK-MEL-28 > 100 µM | A549 > 100 µM | OVCAR-8 > 100 µM | RPMI-8226 > 100 µM | COLO 205 > 100 µM | SF-539 > 100 µM | MOLT-4 > 100 µM | HOP-62 > 100 µM | UO-31 > 100 µM | NCI-H522 > 100 µM | RXF 393 > 100 µM | SN12C > 100 µM

CC1(C)C(=O)C(C)(C)C1=S
inactive: SNB-19 > 100 µM | SR > 100 µM | Malme-3M > 100 µM | HL-60 > 100 µM | SK-MEL-28 > 100 µM | A549 > 100 µM | OVCAR-8 > 100 µM | RPMI-8226 > 100 µM | COLO 205 > 100 µM | CAKI-1 > 100 µM | MOLT-4 > 100 µM | NCI-H226 > 100 µM | HT-29 > 100 µM | HOP-62 > 100 µM | UO-31 > 100 µM | NCI-H522 > 100 µM | SN12C > 100 µM

CCOP(=O)(C/C(O)=C1\C(=O)C(CCCNC(=O)OC(C)(C)C)N(Cc2ccc(OC)c(OC)c2)C1=O)OCC (configuration not stated)
inactive: SNB-19 > 100 µM | SR > 100 µM | Malme-3M > 100 µM | HL-60 > 100 µM | SK-MEL-28 > 100 µM | A549 > 100 µM | OVCAR-8 > 100 µM | RPMI-8226 > 100 µM | COLO 205 > 100 µM | SF-539 > 100 µM | MOLT-4 > 100 µM | NCI-H226 77.4 µM | HT-29 > 100 µM | HOP-62 > 100 µM | UO-31 > 100 µM | NCI-H522 2.59 µM | RXF 393 > 100 µM | SN12C > 100 µM

O=c1ccc(-c2ccc(-n3ccnc3)cc2)nn1CCO
inactive: SNB-19 > 100 µM | SR > 100 µM | Malme-3M > 100 µM | HL-60 > 100 µM | SK-MEL-28 > 100 µM | A549 > 100 µM | OVCAR-8 > 100 µM | RPMI-8226 > 100 µM | COLO 205 > 100 µM | CAKI-1 > 100 µM | SF-539 > 100 µM | MOLT-4 > 100 µM | HT-29 > 100 µM | HOP-62 > 100 µM | UO-31 > 100 µM | NCI-H522 > 100 µM | RXF 393 > 100 µM | SN12C > 100 µM
